The values below come from patent US20260125371A1, “METHOD FOR INHIBITING CLOSTRIDIOIDES DIFFICILE SPORE GERMINATION” (UNIVERSITY OF NOTRE DAME DU LAC, priority 2022, published 2026).

The subject of assay [1] is E. aerogenes ATCC35029. Nature of the assay: MIC against E. aerogenes. The format is cell-based. The conditions noted are these: Klebsiella aerogenes; E. aerogenes ATCC35029; read-out: MIC.
Assay [2] has as its system Clostridioides difficile infection. The conditions noted are these: CDI patients; cited from earlier work.
Assay [3] relates to E. faecium. Nature of the assay: MIC against E. faecium strains. The format is cell-based.
Assay [4] deals with Lactobacillus reuteri HM-102. The conditions noted are these: cited from earlier work.
For assay [5], the system named is A. baumanii ATCC17961. In words: MIC against A. baumanii. The format is cell-based. The settings on record: Acinetobacter baumannii; A. baumanii ATCC17961; read-out: MIC.
The test system of assay [6] is S. pyogenes ATCC 49399. Nature of the assay: MIC against S. pyogenes. The format is cell-based. The conditions noted are these: Streptococcus pyogenes, ATCC49399.
The subject of assay [7] is E. faecalis. Nature of the assay: MIC against E. faecalis strains. It is filed as cell-based. The settings on record: Enterococcus faecalis.
Assay [8] relates to C. difficile ATCC 43255 vegetative cells. Nature of the assay: Mode of action by scanning electron microscopy (SEM). The settings on record: 8× MIC for 24 h.
For another assay, the system named is C. difficile ATCC 43255. In words: Time-kill assay. The format is cell-based, Clostridioides difficile.
Assay [9] relates to E. coli ATCC25922. In words: MIC against E. coli. It is filed as cell-based. The conditions noted are these: Escherichia coli; E. coli ATCC25922; read-out: MIC.
For assay [10], the system named is B. licheniformis ATCC 12759. Nature of the assay: MIC against B. licheniformis. The format is cell-based. The settings on record: Bacillus licheniformis, ATCC12759.
Assay [11] deals with P. aeruginosa ATCC27853. In words: MIC against P. aeruginosa. It is filed as cell-based. The settings on record: Pseudomonas aeruginosa; P. aeruginosa ATCC27853; read-out: MIC.
Assay [12] has as its system Lactobacillus gasseri HM-644. In words: MIC against Lactobacillus gasseri (gut bacteria). It is filed as cell-based. The conditions noted are these: HM644.
For the next assay, the system named is HepG2 cells. In words: XTT cytotoxicity assay. The format is cell-based. The conditions noted are these: Homo sapiens, HepG2, read-out: XTT IC50. In general terms: Tetrazolium dyes change colour on reduction, which living cells bring about.
The test system of assay [13] is E. aerogenes ATCC35029. The settings on record: cited from earlier work.
Assay [14] relates to S. epidermidis ATCC 35547. The settings on record: cited from earlier work.
Another assay concerns MRSA. The settings on record: cited from earlier work.
The subject of a further assay is S. aureus. The conditions noted are these: cited from earlier work.
In assay [15] the test system is S. pyogenes ATCC 49399. The conditions noted are these: cited from earlier work.
The subject of assay [16] is E. faecalis. The settings on record: cited from earlier work.
For another assay, the system named is S. oralis ATCC 9811. The conditions noted are these: cited from earlier work.
The test system of another assay is K. pneumoniae ATCC700603. The conditions noted are these: cited from earlier work.
Assay [17] concerns P. aeruginosa ATCC27853. The conditions noted are these: cited from earlier work.
The test system of assay [18] is E. coli ATCC25922. The settings on record: cited from earlier work.
The next assay deals with B. cereus ATCC 13061. The conditions noted are these: cited from earlier work.
For a further assay, the system named is Gram-negative bacteria. The settings on record: organisms of Table 2; data from earlier publication; cited from earlier work.
Assay [19] concerns E. faecium. The conditions noted are these: cited from earlier work.
Assay [20] relates to A. baumanii ATCC17961. The conditions noted are these: cited from earlier work.
Assay [21] concerns S. haemolyticus ATCC 29970. The settings on record: cited from earlier work.
For assay [22], the system named is B. licheniformis ATCC 12759. The conditions noted are these: cited from earlier work.
[23] abbreviates: Enterococcus faecium, read-out: MIC.

Molecules are shown by their SMILES. In brackets after ≈: the same amount, converted by molar mass. Where two headings read alike, the source gives them in different places.

By MIC is commonly meant the least concentration at which growth counts as inhibited. In the case of `Cc1ncc([N+](=O)[O-])n1CCO` [MTZ, metronidazole], the minimum inhibitory concentration (MIC) in the assay with E. aerogenes ATCC35029 [1] is above 128 µg/mL; in the assay with E. faecium [3] (E. faecium 106 (Van R)), above 16 µg/mL; with E. faecium [3] (Enterococcus faecium, NCTC7171, E. faecium NCTC 7171, read-out: MIC), above 128 µg/mL; in the assay on E. faecium [3] (setting [23]), above 16 µg/mL; in assay [4], above 32 µg/mL; with A. baumanii ATCC17961 [5], above 128 µg/mL. For the same compound, the MIC with S. pyogenes ATCC 49399 [6] was above 128 µg/mL; against E. faecalis [7] it was above 256 µg/mL; against E. faecalis [7] (ATCC29212), above 256 µg/mL; in the assay on E. coli ATCC25922 [9], above 128 µg/mL; in assay [10] it was above 256 µg/mL; with P. aeruginosa ATCC27853 [11] it was above 128 µg/mL. Besides, in [2], the recurrence of infection was 27%. Moreover, in [8], the “effect on vegetative cells by SEM” value is listed as “No obvious effect”. In addition, the “reduction in bacterial growth (time-kill)” value with C. difficile ATCC 43255 (8× MIC) is given as 4 log 10.
`CCc1c(Cl)c(O)c(Cl)c(O)c1C(=O)O[C@H]1[C@H](O)[C@H](OC)[C@H](OC/C2=C\C=C\C[C@H](O)/C(C)=C/[C@H](CC)[C@@H](O[C@@H]3OC(C)(C)[C@@H](OC(=O)C(C)C)[C@H](O)[C@@H]3O)/C(C)=C/C(C)=C/C[C@@H]([C@@H](C)O)OC2=O)O[C@@H]1C` [FDX, fidaxomicin]: the minimal inhibitory concentration (MIC) is above 128 µg/mL in the assay with E. aerogenes ATCC35029 [1]; above 16 µg/mL against E. faecium [3] (E. faecium 106 (Van R)); above 16 µg/mL in the assay on E. faecium [3] (setting [23]); above 32 µg/mL in assay [4]; above 128 µg/mL in the assay on A. baumanii ATCC17961 [5]; above 128 µg/mL in the assay with E. coli ATCC25922 [9]. Further, in the assay with P. aeruginosa ATCC27853 [11], the minimum inhibitory concentration (MIC) was above 128 µg/mL. For the same compound, the recurrence of infection in assay [2] is given as 15%.
In general, IC50 refers to the midpoint of a concentration-inhibition curve. Turning to `O=[N+]([O-])c1cnc(-c2nc(-c3ccc(OC4CCCC4)cc3)no2)[nH]1` [Compound 57, 3-(4-(Cyclopentyloxy)phenyl)-5-(4-nitro-1H-imidazol-2-yl)-1,2,4-oxadiazole], the minimum inhibitory concentration (MIC) in the assay on E. aerogenes ATCC35029 [1] was above 128 µg/mL; against E. faecium [3] (E. faecium 106 (Van R)), 128 µg/mL (≈ 375 µM); in the assay on E. faecium [3] (setting [23]) it was 128 µg/mL (≈ 375 µM); in assay [12] it was above 128 µg/mL; with A. baumanii ATCC17961 [5], above 128 µg/mL; in the assay on S. pyogenes ATCC 49399 [6] it was above 128 µg/mL. The MIC in the assay on E. faecalis [7] (E. faecalis 99 (Van R), read-out: MIC) was 128 µg/mL (≈ 375 µM); in the assay with E. coli ATCC25922 [9] it was above 128 µg/mL; in the assay with P. aeruginosa ATCC27853 [11] it was above 128 µg/mL. Also, the “effect on vegetative cells by SEM” value in assay [8] is reported as “damage to the cell wall”. The “reduction in bacterial growth (time-kill)” value is on record as at least 3 log10 with C. difficile ATCC 43255 (4× MIC, 12 h); 4 log 10 in the assay on C. difficile ATCC 43255 (8× MIC); “Four-log10 reduction” with C. difficile ATCC 43255 (all concentrations: 1×, 2×, 4×, 8× MIC). Besides, in the assay with HepG2 cells, the half-maximal inhibitory concentration (IC50) was 53.4 ± 4.5 µg/mL (≈ 156 µM).
Consider `FC(F)(F)c1ccc(Oc2ccc(-c3noc(-c4ccc5[nH]ccc5c4)n3)cc2)cc1` [Compound 1], for which the minimum inhibitory concentration (MIC) in the assay with E. aerogenes ATCC35029 [13] was above 128 µg/mL; in [14], 2 µg/mL (≈ 4.75 µM); in the assay on S. aureus (S. aureus ATCC 27660) it was 4 µg/mL (≈ 9.49 µM); in the assay with S. aureus (S. aureus ATCC 29213), 4 µg/mL (≈ 9.49 µM); in the assay on S. aureus (S. aureus NRS100 (COL)), 2 µg/mL (≈ 4.75 µM); in the assay with S. aureus (S. aureus NRS119), 2 µg/mL (≈ 4.75 µM). The MIC with S. aureus (S. aureus NRS120) was 2 µg/mL (≈ 4.75 µM); in the assay on S. aureus (S. aureus VRS1), 2 µg/mL (≈ 4.75 µM); with S. aureus (S. aureus VRS2), 2 µg/mL (≈ 4.75 µM); with S. pyogenes ATCC 49399 [15], 64 µg/mL (≈ 152 µM); with E. faecalis [16] (E. faecalis 99 (Van R)), 4 µg/mL (≈ 9.49 µM); with E. faecalis [16] (E. faecalis 201 (Van S)) it was 4 µg/mL (≈ 9.49 µM). Further, the MIC was 8 µg/mL (≈ 19 µM) in the assay with E. faecalis [16] (E. faecalis ATCC 29212); 128 µg/mL (≈ 304 µM) in the assay with S. oralis ATCC 9811; above 128 µg/mL in the assay with K. pneumoniae ATCC700603; above 128 µg/mL with P. aeruginosa ATCC27853 [17]; above 128 µg/mL in the assay with E. coli ATCC25922 [18]; above 128 µg/mL in assay [4]. For the same compound, the MIC in the assay with B. cereus ATCC 13061 is 16 µg/mL (≈ 38 µM); in the assay on E. faecium [19] (E. faecium 106 (Van R)), 2 µg/mL (≈ 4.75 µM); in the assay on E. faecium [19] (E. faecium 119-39A (Van S)), 1 µg/mL (≈ 2.37 µM); with E. faecium [19] (E. faecium NCTC 7171), 2 µg/mL (≈ 4.75 µM); in the assay on A. baumanii ATCC17961 [20] it was above 128 µg/mL; in [21] it was 8 µg/mL (≈ 19 µM). In addition, the MIC in assay [22] was 8 µg/mL (≈ 19 µM). The “efficacy in mouse models of MRSA infection” value in the assay with MRSA is listed as “efficacious”. Besides, in the assay with S. aureus (MRSA), the “MIC against MRSA” value is 2 µg/mL (≈ 4.75 µM). Also, in the assay with Gram-negative bacteria, the “activity against Gram-negative organisms” value was “no activity”.
Regarding `Oc1ccc(-c2nc(-c3ccc(OC4CCCC4)cc3)no2)cc1` [Compound 2], the minimum inhibitory concentration (MIC) in the assay with E. aerogenes ATCC35029 [13] was above 128 µg/mL; in [14], 2 µg/mL (≈ 6.2 µM); with S. aureus (S. aureus ATCC 27660) it was 2 to 4 µg/mL; in the assay on S. aureus (S. aureus ATCC 29213), 2 µg/mL (≈ 6.2 µM); in the assay on S. aureus (S. aureus NRS100 (COL)), 1 µg/mL (≈ 3.1 µM); with S. aureus (S. aureus NRS119) it was 1 to 2 µg/mL. Further, the minimal inhibitory concentration (MIC) with S. aureus (S. aureus NRS120) was 2 µg/mL (≈ 6.2 µM); in the assay on S. aureus (S. aureus VRS1) it was 2 µg/mL (≈ 6.2 µM); in the assay with S. aureus (S. aureus VRS2), 2 µg/mL (≈ 6.2 µM); in the assay on S. pyogenes ATCC 49399 [15], above 128 µg/mL; in the assay with E. faecalis [16] (E. faecalis 99 (Van R)), 4 µg/mL (≈ 12.4 µM); in the assay with E. faecalis [16] (E. faecalis 201 (Van S)), 4 µg/mL (≈ 12.4 µM). The minimum inhibitory concentration (MIC) with E. faecalis [16] (E. faecalis ATCC 29212) is 4 µg/mL (≈ 12.4 µM); in the assay with S. oralis ATCC 9811, above 128 µg/mL; with K. pneumoniae ATCC700603, above 128 µg/mL; in the assay with P. aeruginosa ATCC27853 [17], above 128 µg/mL; in the assay on E. coli ATCC25922 [18], above 128 µg/mL; in assay [4], above 128 µg/mL. Moreover, the MIC with B. cereus ATCC 13061 was 2 µg/mL (≈ 6.2 µM); with E. faecium [19] (E. faecium 106 (Van R)) it was 2 µg/mL (≈ 6.2 µM); with E. faecium [19] (E. faecium 119-39A (Van S)), 2 µg/mL (≈ 6.2 µM); in the assay with E. faecium [19] (E. faecium NCTC 7171) it was 4 µg/mL (≈ 12.4 µM); in the assay with A. baumanii ATCC17961 [20], above 128 µg/mL; in assay [21], 2 µg/mL (≈ 6.2 µM). Also, the minimal inhibitory concentration (MIC) in assay [22] is 4 µg/mL (≈ 12.4 µM). Further, the “activity against Gram-negative organisms” value in the assay with Gram-negative bacteria is “no activity”.
